Experimental data published in US12702696B2, “Methods and composition for modulating immune response and immune homeostasis” (Massachusetts Institute of Technology, priority 2019, dated 2026).
Ends that are not written are not given here.

Experiments:
[1] = mice; GAL2 selective agonist; cited from earlier work
[2] = test system: sympathetic (TH+) and sensory (tdTomato+) fibers of LNs; test: 6-OHDA-mediated chemical sympathectomy, sensory and sympathetic fiber density in popliteal LNs (whole-mount imaging); type: in vivo, mouse; conditions: 6-OHDA 100 mg kg-1 intraperitoneally daily for 5 days vs saline; popliteal LNs of Nav1.8Cre/+; Rosa26LSL-tdTomato/+ mice
From the text: To address the interdependence between these two types of innervation, Applicants assessed the sensitivity of each type of fiber to 6-hydroxydopamine (6-OHDA)-mediated chemical sympathectomy or diphtheria toxin A (DTA)-mediated genetic ablation of Nav1.8 lineage neurons. […] Thus, Applicants unexpectedly discovered that LNs receive not only sympathetic but also sensory innervation, two categorically different types of innervation that are anatomically independent of each other.
Whole mount immunohistochemistry of LNs was performed using an iDISCO protocol with methanol pretreatment optimized for LNs (Renier et al., 2014). Briefly, adult animals (6-12 weeks) were perfused with 25 mL of PBS (Hyclone) and 25 mL of 4% paraformaldehyde (PFA, Sigma) sequentially at room temperature (RT). Peripheral lymph nodes (PLNs), including popliteal and inguinal lymph nodes (popLNs and iLNs), were postfixed with 4% PFA for 1 hr at 4° C. […]
For sympathetic denervation, the stock solution of 6-hydroxydopamine (6-OHDA) (Sigma) was prepared in water at 42 mg/mL and stored at −20° C. […] Animals were analyzed the following day.
For quantification of innervation density of LNs as in FIGS. 1C-1F, relevant channels were first masked with the LN isosurface as described above. […]

| Molecule | anticonvulsant activity [1] | effect on sensory innervation (tdTomato+ fiber density) of LNs [2] | effect on sympathetic innervation (TH+ fiber density) of LNs [2] |
| --- | --- | --- | --- |
| Galanin 2-11 amide: GAL2 selective galanin receptor agonist, CAS #367518-31-8 (WTLNSAGYLL-NH2; UniProt P22466 34-43, looked up, fragment) | anticonvulsant in mice | – | – |
| NCCc1cc(O)c(O)cc1O [6-OHDA, 6-hydroxydopamine] | – | not compromised | efficient sympathetic denervation of LNs |
